Results taken from ChEMBL document CHEMBL2169741, “Analysis of the discriminative inhibition of mammalian digestive lipases by 3-phenyl substituted 1,3,4-oxadiazol-2(3H)-ones” (Eur J Med Chem, 2012).
Calls of active or inactive are those of the source. The rule behind the calls is not given here.

Columns and labels:
[1] = target: T1, Pancreatic triacylglycerol lipase (Sus scrofa) (UniProt P00591); experiment: Inhibition of PPL after 30 mins in presence of NaTDC
T1 sequence (whole entry): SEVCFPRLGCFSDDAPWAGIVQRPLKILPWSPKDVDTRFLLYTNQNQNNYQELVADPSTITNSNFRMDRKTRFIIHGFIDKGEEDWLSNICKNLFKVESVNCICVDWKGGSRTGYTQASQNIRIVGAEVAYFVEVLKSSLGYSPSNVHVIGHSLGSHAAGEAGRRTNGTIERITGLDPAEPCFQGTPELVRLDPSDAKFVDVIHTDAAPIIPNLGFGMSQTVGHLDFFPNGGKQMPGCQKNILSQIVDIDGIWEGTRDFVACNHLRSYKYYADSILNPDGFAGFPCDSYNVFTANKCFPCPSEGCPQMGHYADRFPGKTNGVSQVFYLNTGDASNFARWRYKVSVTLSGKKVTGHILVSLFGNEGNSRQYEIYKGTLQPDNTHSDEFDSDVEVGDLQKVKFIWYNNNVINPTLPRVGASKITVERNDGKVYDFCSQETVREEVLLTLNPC

[2] = target: T2, Pancreatic lipase-related protein 2 (Homo sapiens) (UniProt P54317); experiment: Inhibition of recombinant HPLRP2 expressed in Pichia pastoris assessed as residual activity at 40 molar excess after 30 mins by mass spectrophotometric analysis in presence of NaTDC
T2 sequence (whole entry): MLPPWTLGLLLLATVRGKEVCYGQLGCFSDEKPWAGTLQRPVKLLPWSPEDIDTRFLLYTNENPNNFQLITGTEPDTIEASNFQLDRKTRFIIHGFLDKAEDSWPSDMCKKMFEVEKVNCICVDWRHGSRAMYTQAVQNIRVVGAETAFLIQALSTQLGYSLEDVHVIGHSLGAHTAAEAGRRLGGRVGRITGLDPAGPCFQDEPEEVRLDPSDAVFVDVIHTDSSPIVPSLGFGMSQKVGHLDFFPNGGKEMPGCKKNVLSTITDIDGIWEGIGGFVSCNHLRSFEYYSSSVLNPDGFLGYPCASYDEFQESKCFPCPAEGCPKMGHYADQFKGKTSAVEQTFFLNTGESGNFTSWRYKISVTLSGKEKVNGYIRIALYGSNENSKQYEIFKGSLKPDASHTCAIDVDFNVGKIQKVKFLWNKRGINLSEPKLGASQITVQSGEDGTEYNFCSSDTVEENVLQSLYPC

[3] = target: T2, Pancreatic lipase-related protein 2 (Homo sapiens); experiment: Inhibition of recombinant HPLRP2 expressed in Pichia pastoris at 20 molar excess after 30 mins in presence of NaTDC
[4] = target: T3, Pancreatic triacylglycerol lipase (Homo sapiens) (UniProt P16233); experiment: Inhibition of recombinant HPL expressed in Pichia pastoris at 100 molar excess after 30 mins in presence of NaTDC
T3 sequence (whole entry): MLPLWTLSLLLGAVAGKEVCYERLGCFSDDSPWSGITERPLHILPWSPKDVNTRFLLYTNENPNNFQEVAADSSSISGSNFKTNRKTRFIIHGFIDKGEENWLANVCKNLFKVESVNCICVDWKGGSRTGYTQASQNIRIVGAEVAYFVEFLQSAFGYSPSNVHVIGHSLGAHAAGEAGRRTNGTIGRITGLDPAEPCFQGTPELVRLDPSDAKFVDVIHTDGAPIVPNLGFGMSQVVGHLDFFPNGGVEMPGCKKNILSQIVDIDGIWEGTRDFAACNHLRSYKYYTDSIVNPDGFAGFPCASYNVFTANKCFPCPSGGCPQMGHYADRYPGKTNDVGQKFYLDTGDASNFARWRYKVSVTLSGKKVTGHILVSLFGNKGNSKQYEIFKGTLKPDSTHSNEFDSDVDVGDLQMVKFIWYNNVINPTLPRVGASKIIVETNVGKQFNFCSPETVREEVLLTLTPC

[5] = target: T4, Pancreatic lipase-related protein 2 (Cavia porcellus) (UniProt P81139); experiment: Inhibition of recombinant GPLRP2 expressed in Aspergillus oryzae at 2 molar excess after 30 mins in presence of NaTDC
T4 sequence (whole entry): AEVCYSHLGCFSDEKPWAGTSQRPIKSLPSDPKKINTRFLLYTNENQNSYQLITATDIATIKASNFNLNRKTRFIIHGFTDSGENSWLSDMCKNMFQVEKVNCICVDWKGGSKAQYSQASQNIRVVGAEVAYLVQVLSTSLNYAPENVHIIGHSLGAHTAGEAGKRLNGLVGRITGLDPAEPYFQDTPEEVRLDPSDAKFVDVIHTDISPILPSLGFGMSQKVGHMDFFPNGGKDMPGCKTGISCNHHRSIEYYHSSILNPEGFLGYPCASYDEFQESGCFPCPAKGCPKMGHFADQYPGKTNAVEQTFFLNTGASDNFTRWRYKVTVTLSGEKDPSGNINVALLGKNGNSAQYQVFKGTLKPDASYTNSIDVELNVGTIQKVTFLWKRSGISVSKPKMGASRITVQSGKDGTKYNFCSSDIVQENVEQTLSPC

[6] = target: T2, Pancreatic lipase-related protein 2 (Homo sapiens); experiment: Inhibition of recombinant HPLRP2 expressed in Pichia pastoris after 30 mins in presence of NaTDC
[7] = target: T2, Pancreatic lipase-related protein 2 (Homo sapiens); experiment: Inhibition of recombinant HPLRP2 expressed in Pichia pastoris assessed as half inactivation time at 5 molar excess in presence of NaTDC
[8] = target: T5, Bile salt-activated lipase (Homo sapiens) (UniProt P19835); experiment: Inhibition of human pancreatic CEH at 2 molar excess after 30 mins
T5 sequence (whole entry): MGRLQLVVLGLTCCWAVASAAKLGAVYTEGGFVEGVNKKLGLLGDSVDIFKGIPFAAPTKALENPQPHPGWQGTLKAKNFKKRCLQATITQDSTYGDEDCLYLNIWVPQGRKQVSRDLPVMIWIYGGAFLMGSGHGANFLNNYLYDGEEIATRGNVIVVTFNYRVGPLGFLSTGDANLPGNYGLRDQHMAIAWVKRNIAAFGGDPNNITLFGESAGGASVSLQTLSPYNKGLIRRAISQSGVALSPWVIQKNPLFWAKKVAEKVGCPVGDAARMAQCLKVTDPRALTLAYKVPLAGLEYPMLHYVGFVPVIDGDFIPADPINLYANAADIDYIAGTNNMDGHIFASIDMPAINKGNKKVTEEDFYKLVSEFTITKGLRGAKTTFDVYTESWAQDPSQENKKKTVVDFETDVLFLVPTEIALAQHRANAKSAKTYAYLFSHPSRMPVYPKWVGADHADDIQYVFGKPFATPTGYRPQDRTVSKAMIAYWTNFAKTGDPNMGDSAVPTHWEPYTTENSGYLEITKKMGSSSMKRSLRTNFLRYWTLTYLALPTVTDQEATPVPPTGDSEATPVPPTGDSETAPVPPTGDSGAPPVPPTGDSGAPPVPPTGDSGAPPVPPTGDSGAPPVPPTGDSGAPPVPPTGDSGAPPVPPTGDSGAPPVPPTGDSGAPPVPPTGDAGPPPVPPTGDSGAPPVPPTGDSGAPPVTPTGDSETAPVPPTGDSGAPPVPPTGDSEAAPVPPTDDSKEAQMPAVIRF

[9] = target: T6, Gastric triacylglycerol lipase (Canis lupus familiaris) (UniProt P80035); experiment: Inhibition of recombinant DGL expressed in transgenic maize assessed as half inactivation time at 20 molar excess in presence of NaTDC
T6 sequence (whole entry): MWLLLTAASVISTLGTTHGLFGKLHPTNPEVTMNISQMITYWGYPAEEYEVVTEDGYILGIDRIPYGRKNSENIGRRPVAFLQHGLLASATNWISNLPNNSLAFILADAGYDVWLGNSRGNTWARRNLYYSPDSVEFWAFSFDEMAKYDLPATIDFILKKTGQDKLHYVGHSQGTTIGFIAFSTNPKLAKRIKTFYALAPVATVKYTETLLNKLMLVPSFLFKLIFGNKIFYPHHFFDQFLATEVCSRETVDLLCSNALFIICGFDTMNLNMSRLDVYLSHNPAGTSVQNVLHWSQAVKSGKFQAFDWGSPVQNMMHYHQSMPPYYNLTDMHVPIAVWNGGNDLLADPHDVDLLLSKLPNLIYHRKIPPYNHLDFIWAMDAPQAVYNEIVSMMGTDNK

[10] = target: T6, Gastric triacylglycerol lipase (Canis lupus familiaris); experiment: Inhibition of recombinant DGL expressed in transgenic maize at 20 molar excess after 30 mins in presence of NaTDC
[11] = target: T3, Pancreatic triacylglycerol lipase (Homo sapiens); experiment: Inhibition of recombinant HPL expressed in Pichia pastoris after 30 mins in presence of NaTDC
[12] = target: T5, Bile salt-activated lipase (Homo sapiens); experiment: Inhibition of human pancreatic CEH at 20 molar excess after 30 mins
[13] = target: T6, Gastric triacylglycerol lipase (Canis lupus familiaris); experiment: Inhibition of recombinant DGL expressed in transgenic maize at 2 molar excess after 30 mins in presence of NaTDC
Sus scrofa = species: Sus scrofa; experiment: Inhibition of porcine Pancrelipase at 400 molar excess after 30 mins
[14] = target: T5, Bile salt-activated lipase (Homo sapiens); experiment: Inhibition of human pancreatic CEH after 30 mins
[15] = target: T6, Gastric triacylglycerol lipase (Canis lupus familiaris); experiment: Inhibition of recombinant DGL expressed in transgenic maize assessed as hydrolysis of trybutyrin emulsion at 10 to 40 molar excess after 30 mins in absence of NaTDC
[16] = target: T6, Gastric triacylglycerol lipase (Canis lupus familiaris); experiment: Inhibition of recombinant DGL expressed in transgenic maize after 30 mins in presence of NaTDC
[17] = target: T4, Pancreatic lipase-related protein 2 (Cavia porcellus); experiment: Inhibition of recombinant GPLRP2 expressed in Aspergillus oryzae assessed as residual activity at 40 molar excess after 30 mins by mass spectrophotometric analysis in presence of NaTDC
[18] = target: T1, Pancreatic triacylglycerol lipase (Sus scrofa); experiment: Inhibition of PPL at 400 molar excess after 30 mins in presence of NaTDC
[19] = target: T4, Pancreatic lipase-related protein 2 (Cavia porcellus); experiment: Inhibition of recombinant GPLRP2 expressed in Aspergillus oryzae at 20 molar excess after 30 mins in presence of NaTDC
[20] = target: T3, Pancreatic triacylglycerol lipase (Homo sapiens); experiment: Inhibition of recombinant HPL expressed in Pichia pastoris at 400 molar excess after 30 mins in presence of NaTDC
[21] = target: T1, Pancreatic triacylglycerol lipase (Sus scrofa); experiment: Inhibition of PPL assessed as half inactivation time at 100 molar excess in presence of NaTDC
[22] = target: T1, Pancreatic triacylglycerol lipase (Sus scrofa); experiment: Inhibition of PPL at 100 molar excess after 30 mins in presence of NaTDC
[23] = target: T6, Gastric triacylglycerol lipase (Canis lupus familiaris); experiment: Inhibition of recombinant DGL expressed in transgenic maize assessed as hydrolysis of trybutyrin emulsion at 10 to 40 molar excess after 30 mins in presence of NaTDC
[24] = target: T4, Pancreatic lipase-related protein 2 (Cavia porcellus); experiment: Inhibition of recombinant GPLRP2 expressed in Aspergillus oryzae assessed as half inactivation time at 2 molar excess in presence of NaTDC
[25] = target: T4, Pancreatic lipase-related protein 2 (Cavia porcellus); experiment: Inhibition of recombinant GPLRP2 expressed in Aspergillus oryzae after 30 mins in presence of NaTDC
[26] = target: T2, Pancreatic lipase-related protein 2 (Homo sapiens); experiment: Inhibition of recombinant HPLRP2 expressed in Pichia pastoris at 2 molar excess after 30 mins in presence of NaTDC
[27] = target: T3, Pancreatic triacylglycerol lipase (Homo sapiens); experiment: Inhibition of recombinant HPL expressed in Pichia pastoris assessed as half inactivation time at 100 molar excess in presence of NaTDC
[28] = target: T5, Bile salt-activated lipase (Homo sapiens); experiment: Inhibition of human pancreatic CEH assessed as half inactivation time at 4 molar excess
[29] = target: T6, Gastric triacylglycerol lipase (Canis lupus familiaris); experiment: Inhibition of recombinant DGL expressed in transgenic maize assessed as residual activity at 40 molar excess after 30 mins by mass spectrophotometric analysis in presence of NaTDC
[30] = target: T5, Bile salt-activated lipase (Homo sapiens); experiment: Inhibition of human pancreatic CEH assessed as residual activity at 40 molar excess after 30 mins by mass spectrophotometric analysis

Compound	XI50 [1]	inhibition [3]	inhibition [4]	inhibition [5]	XI50 [6]	T1/2 [7]	inhibition [8]	T1/2 [9]	inhibition [10]	XI50 [11]	inhibition [12]	inhibition [13]	inhibition (Sus scrofa)	XI50 [14]	inhibition [15]	XI50 [16]	inhibition [18]	inhibition [19]	inhibition [20]	T1/2 [21]	other results
COc1nn(-c2cccc(Oc3ccccc3)c2)c(=O)o1	26.5 molar excess	81.2%	26.3%	80.1%	0.62 molar excess	0.78 min	54.5%	1.88 min	81.9%	> 400 molar excess	84.7%	10.9%	89.7%	1.48 molar excess	65%	8.33 molar excess	87.7%	90.4%	42.7%	1.69 min	inhibition [2]: Active; inhibition [17]: Active; inhibition [22]: 85.1%; inhibition [23]: Active; T1/2 [24]: 0.46 min; XI50 [25]: 0.77 molar excess; inhibition [26]: 63.7%; T1/2 [27]: > 120 min; T1/2 [28]: 0.9 min; inhibition [29]: Active; inhibition [30]: Active
COc1nn(-c2ccc(Oc3ccccc3)cc2)c(=O)o1	57.6 molar excess	88.8%	inactive	13.3%	1.04 molar excess	2.06 min	77.1%	9.31 min	92.7%	> 400 molar excess	78.6%	12.4%	90.6%	0.93 molar excess	65%	7.12 molar excess	87.1%	23.6%	20%	1.84 min	inhibition [22]: 72.9%; inhibition [23]: Active; T1/2 [24]: > 60 min; XI50 [25]: > 40 molar excess; inhibition [26]: 66%; T1/2 [27]: > 120 min; T1/2 [28]: 1.43 min
